# Experimental data taken from patent US9121022B2, “Method for controlling herbicide-resistant plants” (priority 2010, dated 2015).
# “Also recorded” adds a separate entry of the source. d = 2'-deoxy (DNA); r = 2'-OH (RNA)
# B1: 9 (nucleic acid)
# chain 1: GCAAGAGATGTCCTAGGTGGG
# chain 2: ACAGATTTCTTCAGGAGAAACATGG
# chain 3: CATCTCCTTTAATTGTACTGCC
# chain 4: TTTAATTGTACTGCCATTATTC
# chain 5: CACTTCCATCCTCATTCAGCTCGAT
# chain 6: ACACCTCATCTGTCACCCTATCAG
# chain 7: CAGTCTCGTACCAATCTCCATCAT
# modifications: DNA, backbone not given here
# B2: Treatment 10: dsRNA corresponding to nucleotides 914-1113 of SEQ ID NO:2 (nucleic acid, listed as Nicotiana benthamiana)
# chain: ACAGATTTCTTCAGGAGAAACATGGTTCAAAAATGGCCTTTTTAGATGGTAACCCTCCTGAGAGACTTTGCATGCCGATTGTGGAACATATTGAGTCAAAAGGTGGCCAAGTCAGACTAAACTCACGAATAAAAAAGATCGAGCTGAATGAGGATGGAAGTGTCAAATGTTTTATACTGAATAATGGCAGTACAATTAAA
# modifications: double-stranded RNA
# B3: 198 bp Palmer PDS dsRNA: dsRNA to positions 797-994 of Palmer amaranth PDS (SEQ ID NO:37) (nucleic acid, listed as Amaranthus palmeri)
# sense: ACCGATTCCTGCAGGAGAAACATGGTTCTAAGATGGCCTTCCTAGACGGAAACCCTCCAGAGAGGCTGTGCATGCCTATTGTTAAACACATCGAGTCACTAGGTGGTGAAGTTAAACTTAACTCTCGTATACAAAAGATTCAGTTGGACCAGAGTGGAAGCGTGAAGAGTTTTTTGCTAAATAACGGGAGGGAAATAC
# modifications: complementary strand
# B4: 678 bp Palmer PDS dsRNA: dsRNA to positions 317-994 of Palmer amaranth PDS (SEQ ID NO:37) (nucleic acid, listed as Amaranthus palmeri)
# sense: TAGGAGGAAAGGTTGCAGCGTGGAAGGATGAGGATGGTGACTGGTATGAGACTGGGCTACATATATTCTTTGGGGCATATCCAAATGTCCAAAATCTATTTGGAGAACTTGGTATAAATGACCGACTGCAATGGAAGGAGCACTCTATGATTTTTGCAATGCCCAGCAAGCCCGGTGAATTCAGTCGCTTTGATTTTCCCGAAATCCTGCCTGCACCATTAAATGGCATATGGGCAATCCTAAGAAATAATGAAATGCTAACCTGGCCAGAAAAAATCAAGTTTGCCATTGGCTTGTTGCCTGCTATGGCAGGCGGACAGTCATATGTTGAAGCACAAGATGGTTTGAGTGTCCAAGAGTGGATGAGAAAACAAGGAGTACCCGATCGTGTAACTGATGATGTGTTTATTGCCATGTCAAAGGCACTGAACTTCATAAATCCCGATGAACTTTCAATGCAGTGCATCTTGATTGCTCTGAACCGATTCCTGCAGGAGAAACATGGTTCTAAGATGGCCTTCCTAGACGGAAACCCTCCAGAGAGGCTGTGCATGCCTATTGTTAAACACATCGAGTCACTAGGTGGTGAAGTTAAACTTAACTCTCGTATACAAAAGATTCAGTTGGACCAGAGTGGAAGCGTGAAGAGTTTTTTGCTAAATAACGGGAGGGAAATAC
# modifications: complementary strand
# Legend:
# [1] = tested on: Nicotiana benthamiana phytoene desaturase; assay: topical PDS oligonucleotides/polynucleotides on tobacco, bleaching and chlorophyll (Example 10); type: in vivo; conditions: for Chlorophyll (day 7) / Chlorophyll (day 12): 6 spots on the apical area, lower values indicate suppression of phytoene desaturase; for systemic regulation (suppression) of the target phytoene desaturase gene: conclusion from Table 4; for Bleaching (day 5): day 5 after treatment
# Excerpt: The target gene used was a Nicotiana benthamiana phytoene desaturase (SEQ ID NO:2), shown in FIG. 10; the segment consisting of nucleotides 421-1120 of SEQ ID NO:2 (underlined text in FIG. 10) was used to design a 700-mer dsRNA polynucleotide (“PDS 700-mer”) and the segment consisting of nucleotides 914-1113 of SEQ ID NO:2 (bolded underlined text in FIG. 10) was used to design a 200-mer dsRNA polynucleotide (“PDS 200-mer”). FIG. 11 schematically depicts the location of the sequences of these oligonucleotides and polynucleotides in relation to the […] (SEQ ID NO:2) sequence. Non-plant sequences obtained from corn rootworm (“CRW”), SEQ ID NOs:27, 28, 29, and 30 were used as non-homologous controls. Some of the polynucleotides included a T7 promoter sequence (indicated by lower-case text in Table 3) that is a promoter recognized by a bacteriophage T7 RNA polymerase.
# The following procedure was used for all assays described in this example. Four-week old Nicotiana benthamiana plants were used in all assays. Plants were treated with 0.1% SILWET L-77® brand surfactant solution freshly made with ddH2O. Two fully expanded leaves per plant (one cotyledon, one true leaf) were dipped into the SILWET L-77® brand surfactant solution for a few seconds, and allowed to dry for 15-30 minutes before application of the polynucleotide composition. Final concentration for each oligonucleotide or polynucleotide was 25 microM (in 0.01% SILWET L-77® brand surfactant, 5 mM sodium phosphate buffer, pH 6.8) unless otherwise stated. 20 microliters of the solution was applied to the top surface of each of the two pre-treated leaves to provide a total of 40 microliters (1 nmol oligonucleotide or polynucleotide) for each plant. Leaf bleaching was observed 3 days post treatment.
# FIG. 13 illustrates phenotypes observed at day 12 after treatment in another assay of the effect from twelve combinations of polynucleotides or oligonucleotides (see Table 4). Table 4 also lists observations of visible bleaching of the plants at day 5 after treatment and the results of chlorophyll measurements taken at days 7 and 12 after treatment. Chlorophyll measurements are an indication of suppression of the target gene phytoene desaturase, and measurements were taken at 6 spots on the apical area, focussing on visibly bleached leaves or (in plants without visible bleaching) on leaves in equivalent locations on the plants; lower chlorophyll measurement values indicate suppression of phytoene desaturase.
# [2] = tested on: Palmer amaranth (EPSPS copy numbers 16 to 112); assay: combinations of EPSPS, TIF and ddATPase polynucleotides with glyphosate, protocols of Table 12 (Example 26, Table 13); type: in vivo, Palmer amaranth (Amaranthus palmeri)
# Method: The polynucleotides listed in Table 11 were produced by synthesis or by in vitro transcription.
# Solutions of the polynucleotides were prepared and applied to the leaves of Palmer amaranth using the protocols described in Table 12.
# [3] = tested on: Palmer amaranth phytoene desaturase (PDS); assay: sequence specificity of PDS dsRNA on Palmer amaranth, leaf bleaching (Example 11); type: in vivo; conditions: for bleaching of leaves: 0.6 micromolar, 40 microliters per plant, 3 days post treatment; for bleaching of leaves (FIG. 17): separate assay
# Excerpt: Palmer amaranth phytoene desaturase (PDS) has the sequence […] […] […] […] […] […] […] […] […] […] […] […] […] […] […] […] […] […] […] […] […] […] […] […] (SEQ ID NO:37). A 678 base pair dsRNA polynucleotide with an anti-sense strand capable of hybridizing to the RNA encoded by the nucleotides at positions 317-994 (shown as underlined text) in SEQ ID NO:37 and a 198 base pair dsRNA polynucleotide with an anti-sense strand capable of hybridizing to the RNA encoded by the nucleotides at positions 797-994 (shown as italicized and underlined text) in SEQ ID NO:37 were synthesized.
# Nicotiana benthamiana phytoene desaturase has the sequence […] […] […] […] […] […] […] […] […] […] […] […] […] […] […] […] […] […] […] […] […] […] […] […] […] […] (SEQ ID NO:38). A 685 base pair dsRNA polynucleotide with an anti-sense strand capable of hybridizing to the RNA encoded by the nucleotides at positions 421-1105 (shown as underlined text) in SEQ ID NO:38 and a 192 base pair dsRNA polynucleotide with an anti-sense strand capable of hybridizing to the RNA encoded by the nucleotides at positions 914-1105 (shown as italicized and underlined text) in SEQ ID NO:38 were synthesized.
# Palmer amaranth plants having 16 copies of EPSPS and 5-8 inches high were treated with 0.1% SILWET L-77® brand surfactant solution freshly made with ddH2O. Four fully expanded leaves per plant were dipped into the SILWET L-77® brand surfactant solution for a few seconds, and allowed to dry for 30 minutes to 1 hour before application of the polynucleotide composition. Individual polynucleotide solutions were made for each of the 678 bp Palmer PDS dsRNA, 198 bp Palmer PDS dsRNA, the 685 bp Nicotiana benthamiana PDS dsRNA, and the 192 bp Nicotiana benthamiana PDS dsRNA (0.6 micromolar polynucleotide in 0.01% SILWET L-77® brand surfactant, 5 mM sodium phosphate buffer, pH 6.8). 10 microliters of polynucleotide solution (or buffer as a control) was applied to the top surface of each of the four pre-treated leaves per plant to provide a total of 40 microliters for each plant. Plants were kept in a growth chamber, and leaf bleaching was observed 3 days post treatment.
# [4] = Protocol 3, 29 g/acre, copy number 16, 13 DAT
molecule,measurement,setting,value
"6 (sense ATCCATGATATCGTGAACATC; antisense GCAAAGAAAAATGCGTCG; DNA, backbone not given here) [compound 6]",Chlorophyll (day 7),[1],34.2
same,Chlorophyll (day 12),[1],38.2
same,systemic regulation (suppression) of the target phytoene desaturase gene,[1],did not suppress
same,Bleaching (day 5),[1],not yet
"7 (sense 1 GCAAGAGATGTCCTAGGTGGG; sense 2 ACAGATTTCTTCAGGAGAAACATGG; DNA, backbone not given here) [compound 7]",Chlorophyll (day 7),[1],32.0
same,Chlorophyll (day 12),[1],41.1
same,systemic regulation (suppression) of the target phytoene desaturase gene,[1],did not suppress
same,Bleaching (day 5),[1],not yet
"8 (antisense 1 CATCTCCTTTAATTGTACTGCC; antisense 2 TTTAATTGTACTGCCATTATTC; DNA, backbone not given here) [compound 8]",Chlorophyll (day 7),[1],11.3
same,Chlorophyll (day 12),[1],3.2
same,systemic regulation (suppression) of the target phytoene desaturase gene,[1],effective
same,Bleaching (day 5),[1],strong
"IDT [1]: Palmer/EPSPS dsRNA, SEQ ID NO. 83, 84; 25-mer sense with two 3′ deoxyribonucleotides, 27-mer anti-sense (sense CUACCAUCAACAAUGGUGUCCAUAC; antisense GUAUGGACACCAUUGUUGAUGGUAGUA; sense: sugars from the 5' end r23 d2, backbone not given here; antisense: RNA, backbone not given here)",Results: stunted,[2]; [4],51% stunted
"IDT [2]: Palmer/EPSPS dsRNA, SEQ ID NO. 85, 86 (chain 1 AGUUGGUGGGCAAUCAUCAAUUGTT; chain 2 AACAAUUGAUGAUUGCCCACCAACUCU; chain 1: sugars from the 5' end r23 d2, backbone not given here; chain 2: RNA, backbone not given here)",Results: control,[2]; [4],0% control
"IDT [3]: Palmer/EPSPS dsRNA, SEQ ID NO. 87, 88 (chain 1 GGUCGACAACUUGCUGUAUAGUGAT; chain 2 AUCACUAUACAGCAAGUUGUCGACCUC; chain 1: sugars from the 5' end r23 d2, backbone not given here; chain 2: RNA, backbone not given here)",Results: stunted,[2]; [4],51% stunted
"IDT [5]: Palmer/EPSPS dsRNA (21-mer) with blunt ends, SEQ ID NO. 91, 92 (chain 1 AACAUGAACAAAAUGCCAGAU; chain 2 AUCUGGCAUUUUGUUCAUGUU; RNA, backbone not given here)",Results: stunted,"[2]; Protocol 1, 0.29 g/acre, copy number 33, 54, 55, 18 DAT",71%
same,Results: killed,"[2]; Protocol 1, 2.9 g/acre each, copy number 34, 36, 54, 22 DAT",100% kill
same,Results: killed,"[2]; Protocol 1, 2.9 g/acre, copy number 33, 54, 55, 18 DAT",100% killed
"Treatment 8: SEQ ID NO: 22, 23; anti-sense 22-mer oligos without T7 promoter (antisense 1 CATCTCCTTTAATTGTACTGCC; antisense 2 TTTAATTGTACTGCCATTATTC; listed as DNA, chemistry not given here)",bleaching of apical leaves (FIG. 15),"[1]; another assay, listed as PDS anti-sense",strong bleaching; also recorded: apical leaf bleaching observed
B1,Chlorophyll (day 7),[1],30.2
same,Chlorophyll (day 12),[1],34.4
same,Bleaching (day 5),[1],not yet
B2,bleaching of apical leaves (FIG. 12A),"[1]; 200-mer dsRNA at 0.6 microM, oligonucleotides 25 microM each",Bleaching of apical leaves was observed
same,systemic regulation (suppression) of the target phytoene desaturase gene,[1],also effective
B3,bleaching of leaves,[3],showed bleaching of leaves
same,bleaching of leaves (FIG. 17),[3],apical leaf bleaching observed
B4,bleaching of leaves,[3],showed bleaching of leaves
same,bleaching of leaves (FIG. 17),[3],apical leaf bleaching observed
